Laboratory results reported in patent US12668589B2, “N-formamidopyrazoline derivative as P2X3 receptor antagonist and use thereof” (HANGZHOU WESTAN PHARMACEUTICAL TECHNOLOGY CO., LTD, priority 2020, dated 2026).

What was measured:
gpP2X3 = molecular target: T1, gpP2X3 (Cavia porcellus, UniProt H0VWY5); test: Inhibitory activity against P2X3 in guinea pigs (electrophysiological method); assay type: cell-based; details: guinea pig P2X3, electrophysiological method
T1 sequence (H0VWY5 1-391): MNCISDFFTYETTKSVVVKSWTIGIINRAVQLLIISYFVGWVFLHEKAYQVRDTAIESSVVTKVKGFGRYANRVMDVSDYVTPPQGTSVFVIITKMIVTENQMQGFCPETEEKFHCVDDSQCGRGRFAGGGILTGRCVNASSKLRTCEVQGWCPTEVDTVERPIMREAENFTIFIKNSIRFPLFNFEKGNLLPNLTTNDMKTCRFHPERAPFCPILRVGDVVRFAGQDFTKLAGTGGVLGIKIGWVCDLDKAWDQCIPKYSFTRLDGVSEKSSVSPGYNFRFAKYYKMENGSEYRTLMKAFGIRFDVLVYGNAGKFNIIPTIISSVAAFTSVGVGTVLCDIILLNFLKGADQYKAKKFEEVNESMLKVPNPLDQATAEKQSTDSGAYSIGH

taste of SD rats = test: Rat taste test (quinine water / tap water drinking); assay type: in vivo; details: 10 mg/kg intraperitoneal injection; for Water drinking amount, Tap water: free drinking 15 minutes, amounts measured to the nearest 0.1 mL; for Water drinking amount, Sum: tap plus quinine water; for Water drinking amount, Sum / Water drinking amount, Quinine: 15 minutes, measured to the nearest 0.1 mL; for Water drinking amount, Quinine: water with 0.3 mM quinine hydrochloride
Description: Experimental purpose: to observe an effect of title compounds on taste of SD rats.
• 1.1) Animals and grouping: 40 male SD rats, with about 300 grams per rat. […] A bottle of normal drinking water and a bottle of drinking water containing 0.3 mM quinine hydrochloride were placed in each cage at the same time, and left and right positions where the two bottles of water were placed in all animal feeding cages were the same. After the animals were allowed to freely drink water for 15 minutes, drinking amounts of the two bottles of water were measured respectively to the nearest 0.1 mL. • 1.5) Data statistics: drinking amounts of quinine bitter water and tap water and a total water drinking amount thereof as well as a percentage of quinine water in the total water drinking amount were counted respectively. Water drinking amounts of the bitter water of animals in each group were compared. Whether differences between groups were significant was compared by analysis of variance. 2) Experimental Results

[1] = Stability in simulated gastric fluids and simulated intestinal fluids; assay type: in vitro ADME; details: 1.25 μM, 37° C., up to 5 hours, pH 1.3 with pepsin / pH 6.8 with trypsin; result in words
Description: An LC-MS/MS method, wherein A liquid phase method adopts a gradient elution method. Chromatographic Column: ACQUITY UPLC® BEH C18 (2.1 mm×50 mm, 1.7 μm); Flow Rate: 0.35 mL/min; Injection Volume: 1 μL; Column Temperature: 40° C.; Automatic Sampler Temperature: 10° C.; Mobile Phase Compositions: mobile phase A: 0.1% formic acid water, and mobile phase B: acetonitrile. Mass spectrometry conditions adopt an ESI source, and positive ion and multiple reaction monitoring (MRM) modes were used for mass spectrometry analysis.
Simulated gastric fluid and simulated intestinal fluid samples were taken, in which 1,200 μL of an acetonitrile solution containing an internal standard (5 ng/mL loratadine) was added. Even vortex mixing was conducted at 2,500 rpm. Centrifuging was conducted for 10 minutes at 20,000 rcf at 4° C. […] Contents of prototype drugs were detected by LC-MS/MS. […]
MassLynx V4.2 software was used for data collecting. After integration parameters were optimized, target chromatographic peaks were automatically integrated, individual chromatographic peaks were not allowed to be integrated separately or manually, and retention time and a peak area were calculated. Data was collected by MassLynx V4.2, and subjected to integration processing to obtain the retention time and the peak area, and a peak area ratio of an analyte to an internal standard was calculated. […]

IC50 (gpP2X3) [nM]	Water drinking amount, Tap water (taste of SD rats)	Water drinking amount, Sum (taste of SD rats)	Water drinking amount, Quinine (taste of SD rats)	stability in artificial gastric and intestinal fluids [1]	Structure (SMILES)
421	11.84	13.87	2.03	relatively stable	CCOC(=O)N(C)[C@H]1CN(C(=O)N[C@H](C)c2cnc(C(F)(F)F)nc2)N=C1c1ccc(C)cc1 [Compound 4, (S)-4-(N-methyl-N-ethoxycarbonylamino)-3-(4-methylphenyl)-N-((R)-1-(2-(trifluoromethyl)pyrimidin-5-yl)ethyl)-4,5-dihydro-1H-pyrazol-1-carboxamide]
297	12.26	14.13	1.87	relatively stable	Cc1ccc(C2=NN(C(=O)N[C@H](C)c3ccc(C(F)(F)F)nc3)C[C@@H]2N2CCOC2=O)cc1 [Compound 22]
